{"source": "paper PMC8524146", "about": "“In vitro and in silico characterization of alkaline serine protease from Bacillus subtilis D9 recovered from Saudi Arabia” (Heliyon, 2021)", "target": "T1, AKD9 alkaline serine protease (Bacillus subtilis, UniProt A0A5Q0V2V1)", "T1 construct": "native enzyme purified from culture supernatant of isolate D9; single band just below 48 kDa; cloned gene 442 aa, 47,789 Da", "T1 sequence (A0A5Q0V2V1 1-442)": "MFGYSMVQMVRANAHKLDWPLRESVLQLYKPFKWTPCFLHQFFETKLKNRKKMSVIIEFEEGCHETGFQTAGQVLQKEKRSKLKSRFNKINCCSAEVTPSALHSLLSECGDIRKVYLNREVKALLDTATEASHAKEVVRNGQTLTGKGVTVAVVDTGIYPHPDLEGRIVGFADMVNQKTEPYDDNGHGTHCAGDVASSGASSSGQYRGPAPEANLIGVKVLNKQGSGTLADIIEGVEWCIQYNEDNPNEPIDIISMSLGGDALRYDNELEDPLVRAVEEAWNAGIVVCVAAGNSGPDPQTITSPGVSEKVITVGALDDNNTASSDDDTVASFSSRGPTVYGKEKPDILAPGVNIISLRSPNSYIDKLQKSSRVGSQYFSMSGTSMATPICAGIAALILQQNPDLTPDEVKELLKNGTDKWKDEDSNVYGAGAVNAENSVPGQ", "assay": "casein hydrolysis, A280 of TCA-soluble products", "type": "biochemical", "details": "100 µM; 0.1 mM TLCK; casein substrate", "text": "casein hydrolysis, A280 of TCA-soluble products on AKD9 alkaline serine protease"}
{"smiles": "Cc1ccc(S(=O)(=O)N[C@@H](CCCCN)C(=O)CCl)cc1", "note": "[TLCK]", "values": [{"measurement": "Residual activity, U/ml", "result": "31.5 ± 0.4", "unit": "U/ml"}]}
